Source: US11022604B2, “Dock derived compound against laminin receptor (37 LR) and uses thereof” (Purdue Research Foundation, priority 2017, dated 2021)

Tested on: EA.hy926 endothelial cells
Assay: Angiogenesis tube formation assay
Format: cell-based
Protocol: Expression of PEDF-signaling associated genes from PC-3 cells treated with 50 μM C3, compared to DMSO control and normalized to GAPDH (n=3, mean±SEM). A Holm-Sidak multiple t test was used for statistical analysis (*p<0.05,**O<0.01, ***<0.001). […] Average tube count for 0.1% DMSO, 0.5% DMSO, and 1, 10 and 50 μM treatment with C3 (n=7, mean±SEM). 1 and 10 μM C3 were compared with respective 0.5% DMSO (unpaired two-tailed t test, ****<0.0001). 50 μM C3 was compared with respective 0.1% DMSO (unpaired two-tailed t test p<0.0001).
Wound Healing Assay. PC-3 cells were seeded in 6 well plates at 3×10^5 cells per well in complete media until the cells reached confluency. Three horizontal and three vertical scratches were made in the confluent monolayers using a standard 200 μL pipette tip and cellular debris were removed by washing with 1×DPBS three times. 1×RPMI-1640 supplemented with C3 or DMSO was added and cells were incubated for 48 hours as described previously. […] Images were uploaded and analyzed for scratch geometry using the tscratch program (96). First, global thresholding was performed, then individual images were manually inspected for single image threshold adjustment and scratch geometries were quantified. […] The samples were analyzed using the Dionex UltiMate 3000 RSLC Nano System coupled to the Q Exactive™ HF Hybrid Quadrupole-Orbitrap MS (Thermo Scientific). […]

Structure (SMILES): O=C(c1cc(F)cc2c1OCOC2)N1CCN(C2c3ccccc3-c3ccccc32)CC1 [Compound C3, [4-(9h-fluoren-9-yl)piperazino](6-fluoro-4h-1,3-benzodioxin-8-yl)methanone]
- calcein uptake: did not alter calcein uptake
